Patent US8088780B2, “5,7-disubstituted thiazolo[4,5-D]pyrimidines for the selective inhibition of chemokine receptors” (AstraZeneca AB, priority 2005, dated 2012)

Tests used:
[1] = target: T1, CX3CR1 (Homo sapiens, UniProt P49238); test: [125I]-fractalkine competition receptor binding assay on membranes of cells expressing hCX3CR1; settings: HEKS 293 hCX3CR1 membranes
T1 construct: expressed in transfected cells
T1 sequence (P49238 1-355): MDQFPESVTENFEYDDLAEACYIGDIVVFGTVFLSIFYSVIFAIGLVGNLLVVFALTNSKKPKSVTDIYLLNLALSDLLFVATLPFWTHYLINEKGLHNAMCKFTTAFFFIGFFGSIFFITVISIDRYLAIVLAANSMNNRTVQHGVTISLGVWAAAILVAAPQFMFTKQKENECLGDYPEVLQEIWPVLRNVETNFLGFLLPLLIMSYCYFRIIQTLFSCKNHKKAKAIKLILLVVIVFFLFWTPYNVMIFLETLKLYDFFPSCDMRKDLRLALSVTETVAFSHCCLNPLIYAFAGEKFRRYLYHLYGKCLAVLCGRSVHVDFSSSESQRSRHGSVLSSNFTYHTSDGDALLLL
Description: The complete human CX3CR1 cDNA (GenBank accession number U20350) was extracted from human brain mRNA (Superscript, Life Technologies) and ligated into pCR-Blunt II TOPO vector (InVitrogen). The insert corresponding hCX3CR1 was isolated and further subcloned into pcDNA3.1zeo. Plasmid DNA was prepared using Plasmid Midi Kit (Qiagen). […] A stable clone was generated utilizing zeocin (500 μg/mL) and hygromycin (100 μg/mL) selection. For further applications the cells were maintained in Dulbecco's modified Eagle's medium/Ham's nutrient mix F12 (DMEM/F12) containing pyridoxine and supplemented with 10% (v/v) fetal bovine serum, 2 mM L-glutamine, 100 U/ml penicillin and 100 mg/ml streptomycin, 250 μg/mL zeocin and 100 μg/mL hygromycin.
Cells are grown at 37° C. and 5% CO2 and harvested at 60-80% confluence in buffer containing 10 mM Tris-HCl pH 7.4, 5 mM EDTA, 0.1 mg/mL bacitracin. The cells are centrifuged at 300×g for 10 min and the pellet is resuspended in harvesting buffer (10 mM Tris-HCl, pH 7.4, 5 mM ethylenediaminetetra-acetic acid (EDTA) and 0.1 mg/mL bacitracin), pooled and homogenised using a Dounce homogeniser. […]
Ten concentrations (2 points/log unit) of the test compounds were pre-dissolved in DMSO and added to reach a final concentration of 1% (v/v) DMSO. […] Scintillation cocktail was added and radioactivity was determined in a Packard 2500TR liquid scintillation counter.

[2] = target: T2, CXCR2 (Homo sapiens, UniProt P25025); test: [125I]-hIL-8 competition binding (SPA) on membranes of cells expressing human CXCR2; settings: receptor binding, [125I]-hIL-8, human CXCR2 membranes
T2 construct: kept under geneticin/G418 selection
T2 sequence (P25025 1-360): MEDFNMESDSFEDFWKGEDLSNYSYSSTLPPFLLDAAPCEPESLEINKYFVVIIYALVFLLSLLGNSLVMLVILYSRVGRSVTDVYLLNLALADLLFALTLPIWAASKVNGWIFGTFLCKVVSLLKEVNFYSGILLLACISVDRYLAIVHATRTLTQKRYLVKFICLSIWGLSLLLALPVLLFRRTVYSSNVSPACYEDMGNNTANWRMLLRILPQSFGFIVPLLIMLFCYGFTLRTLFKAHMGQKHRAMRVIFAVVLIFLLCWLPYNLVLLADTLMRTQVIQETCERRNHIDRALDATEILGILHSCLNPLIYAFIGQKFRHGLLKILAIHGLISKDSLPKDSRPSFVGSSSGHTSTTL
Description: Cells expressing human CXCR2 obtained from AstraZeneca Charnwood are cultured in EMEM containing Glutamax and supplemented with 10% FBS (from PAA, Austria), 1% non-essential amino acids (NEAA), 100 U/mL penicillin and 100 μg/mL streptomycin (PEST) and 500 μg/mL geneticin/G418.
Cells are grown at 37° C. and 5% CO2 and harvested at 60-80% confluence in buffer containing 10 mM Tris-HCl pH 7.4, 5 mM EDTA, 0.1 mg/mL bacitracin. The cells are centrifuged at 300×g for 10 min and the pellet is resuspended in harvesting buffer (10 mM Tris-HCl, pH 7.4, 5 mM ethylenediaminetetra-acetic acid (EDTA) and 0.1 mg/mL bacitracin), pooled and homogenised using a Dounce homogeniser. The homogenate is centrifuged in 48000×g for 10 min and resuspended in harvesting buffer using Ultra-Turrax T8. Membrane aliquots are stored at −80° C.
The non-specific binding is determined in the presence of 500 nM unlabelled hIL-8. The agonist hIL-8 (a concentration-response curve from 3 pM to 30 nM), is used as reference compound at each test occasion. […] The binding reaction is started by addition of 140 μL membrane-SPA preparation, and the samples are incubated in dark at RT for 4 h.

SMILES | Ki [1] [nM] | Ki [2] [nM]
CCC(Sc1nc(N[C@@H](CO)CC(C)C)c2sc(=O)[nH]c2n1)c1ccccc1 (stereo partly shown) | 5.8 | 651
CC(C)C[C@H](CO)Nc1nc(SCc2ccccc2)nc2[nH]c(=O)sc12 [5-(benzylthio)-7-{[(1R)-1-(hydroxymethyl)-3-methylbutyl]amino}[1,3]thiazolo[4,5-d]pyrimidin-2(3H)-one] | 54 | 79
